Measurements: US11214594B2, “Antimicrobial peptide having synergistic antibacterial effect with antibiotics on multidrug resistant bacteria, and use thereof” (priority 2016, dated 2022)
≈ marks a conversion by molar mass, not a printed value. Like-named read-outs stand apart in the source and are kept apart here. Where a SMILES comes first, the peptide text is derived from it. [ ]: non-standard residue; d: D form.

What was measured:
[1] = tested on: E. coli; format: cell-based, Escherichia coli; conditions: E. coli
Method in brief: (§1)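 Antibiotic MIC came from antibiotic dilutions added to bacteria (2×10^6 CFU/ml, MH medium) already combined with peptide serially diluted 2:1 from its own MIC. Swapping the roles of the two agents gave the peptide MIC.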

[2] = tested on: MDREC 1229; format: cell-based, Escherichia coli
Method in brief: as §1

[3] = tested on: E. coli; test: MIC of antibiotic during combined treatment with antimicrobial peptide; format: cell-based, Escherichia coli; conditions: for Antibiotic MIC, Erythromycin / Antibiotic MIC, Linezolid / Antibiotic MIC, Vancomycin: E. coli
Method in brief: (§2)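 Antibiotic diluted in MH medium, dispensed per well with peptide; setup repeated with roles reversed; MIC read per combination.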

[4] = tested on: B. subtilis; test: microbe, parasite or virus in culture; format: cell-based, Bacillus subtilis
Method in brief: (§3)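 Broth microdilution in MH medium: bacterial strains diluted to 2×10^6 CFU were mixed with equal volumes of peptide serially diluted twofold in MH medium.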

[5] = tested on: A. baumannii; test: MIC of antimicrobial peptide during combined treatment with antibiotic; format: cell-based, Acinetobacter baumannii
Method in brief: as §1

[6] = tested on: MDRAB 12035; test: as above; format: cell-based, Acinetobacter baumannii
Method in brief: as §1

[7] = tested on: S. aureus; test: microbe, parasite or virus in culture; format: cell-based, Staphylococcus aureus
Method in brief: as §3

[8] = tested on: S. epidermidis; test: microbe, parasite or virus in culture; format: cell-based, Staphylococcus epidermidis
Method in brief: as §3

[9] = tested on: P. aeruginosa; test: microbe, parasite or virus in culture; format: cell-based, Pseudomonas aeruginosa
Method in brief: as §3

[10] = tested on: A. baumannii; test: microbe, parasite or virus in culture; format: cell-based, Acinetobacter baumannii
Method in brief: as §3

[11] = tested on: MDRAB 12035; test: microbe, parasite or virus in culture; format: cell-based, Acinetobacter baumannii; conditions: MDRAB 12035
Method in brief: as §3

[12] = tested on: MDRST 8009; format: cell-based, Salmonella typhimurium; conditions: agent alone
Method in brief: as §3

[13] = tested on: A. baumannii; test: MIC of antibiotic during combined treatment with antimicrobial peptide; format: cell-based, Acinetobacter baumannii; conditions: A. baumannii
Method in brief: as §2

[14] = tested on: E. coli; test: microbe, parasite or virus in culture; format: cell-based, Escherichia coli; conditions: 16 h
Method in brief: as §3

[15] = tested on: MDREC 1229; test: microbe, parasite or virus in culture; format: cell-based, Escherichia coli; conditions: MDREC 1229
Method in brief: as §3

[16] = linezolid 64 μg/ml (Conc./MIC 1/8)
[17] = linezolid 512 μg/ml (Conc./MIC 1)
[18] = vancomycin 512 μg/ml (Conc./MIC 1/2)
[19] = vancomycin 1024 μg/ml (Conc./MIC 1)
[20] = erythromycin 4 μg/ml (Conc./MIC 1/8)
[21] = erythromycin 8 μg/ml (Conc./MIC 1/4)
[22] = erythromycin 16 μg/ml (Conc./MIC 1/2)
[23] = erythromycin 32 μg/ml (Conc./MIC 1)
[24] = combined with peptide at 1 μg/ml
[25] = combined with peptide at 2 μg/ml
[26] = combined with peptide at 4 μg/ml
[27] = combined with peptide at 6 μg/ml
[28] = combined with peptide at 8 μg/ml
[29] = combined with peptide at 16 μg/ml
[30] = combined with peptide at 32 μg/ml
[31] = combined with peptide at 64 μg/ml

SMILES: CC[C@H](C)[C@H](NC(=O)[C@H](CCCCN)NC(=O)[C@H](Cc1c[nH]c2ccccc12)NC(=O)[C@@H](N)CCCNC(=N)N)C(=O)N[C@@H](Cc1ccccc1)C(=O)N[C@@H](CCCCN)C(=O)N[C@@H](CCCCN)C(=O)N[C@H](C(=O)N[C@H](CC(C)C)C(=O)N[C@@H](CCCCN)C(=O)N[C@@H](CC(C)C)C(=O)N[C@@H](CC(C)C)C(=O)N[C@@H](Cc1c[nH]cn1)C(=O)N[C@@H](CCCCN)C(=O)N[C@@H](Cc1ccccc1)C(=O)N[C@@H](CCCCN)C(=O)N[C@@H](CCCCN)C(=O)N[C@@H](Cc1ccccc1)C(N)=O)[C@@H](C)CC [PapMA-21, RWK IFK KIl KLL HKF KKF-NH2] (H-RWKIFKKI[dL]KLLHKFKKF-NH2; N-terminus assumed)
- Peptide MIC ([1]; with Erythromycin 16 μg/ml (Conc./MIC 1/8)): 4 µg/mL
- Peptide MIC ([1]; with Erythromycin 32 μg/ml (Conc./MIC 1/4)): 2 µg/mL
- Peptide MIC ([1]; with Erythromycin 64 μg/ml (Conc./MIC 1/2)): 1 µg/mL
- Peptide MIC ([1]; with Erythromycin […] (Conc./MIC 1)): 0 µg/mL
- Peptide MIC ([1]; with Linezolid 32 μg/ml (Conc./MIC 1/8)): 8 µg/mL
- Peptide MIC ([1]; with Linezolid 64 μg/ml (Conc./MIC 1/4)): 4 µg/mL
- Peptide MIC ([1]; with Linezolid […] (Conc./MIC 1)): 0 µg/mL
- Peptide MIC ([1]; with Linezolid […] (Conc./MIC 1/2)): 2 µg/mL
- Peptide MIC ([1]; with Vancomycin 512 μg/ml (Conc./MIC 1/2)): 2 µg/mL
- Peptide MIC ([1]; with Vancomycin 1024 μg/ml (Conc./MIC 1)): 0 µg/mL
- Peptide MIC ([1]; with Vancomycin […] (Conc./MIC 1/4)): 4 µg/mL
- Peptide MIC ([1]; with Vancomycin […] (Conc./MIC 1/8)): 8 µg/mL
- Peptide MIC during treatment with antibiotic ([2]; erythromycin 32 μg/ml (Conc./MIC 1/8)): 2 µg/mL
- Peptide MIC during treatment with antibiotic ([2]; erythromycin 64 μg/ml (Conc./MIC 1/4)): 2 µg/mL
- Peptide MIC during treatment with antibiotic ([2]; erythromycin […] (Conc./MIC 1)): 0 µg/mL
- Peptide MIC during treatment with antibiotic ([2]; erythromycin […] (Conc./MIC 1/2)): 1 µg/mL
- Peptide MIC during treatment with antibiotic [2, 16]: 8 µg/mL
- Peptide MIC during treatment with antibiotic [2, 17]: 0 µg/mL
- Peptide MIC during treatment with antibiotic ([2]; linezolid […] (Conc./MIC 1/2)): 1 µg/mL
- Peptide MIC during treatment with antibiotic ([2]; linezolid […] (Conc./MIC 1/4)): 4 µg/mL
- Peptide MIC during treatment with antibiotic [2, 18]: 2 µg/mL
- Peptide MIC during treatment with antibiotic [2, 19]: 2 µg/mL
- Peptide MIC during treatment with antibiotic ([2]; vancomycin […] (Conc./MIC 1/4)): 4 µg/mL
- Peptide MIC during treatment with antibiotic ([2]; vancomycin […] (Conc./MIC 1/8)): 8 µg/mL
- Synergistic effect of antibacterial activity with existing antibiotics compared with PapMA-1 ([3]; E. coli and MDREC1229): level similar to that of the PapMA-1 peptide
- Antibiotic MIC, Erythromycin ([3]; erythromycin combined with peptide at 1 μg/ml): 64 µg/mL
- Antibiotic MIC, Erythromycin ([3]; erythromycin combined with peptide at 2 μg/ml): 32 µg/mL
- Antibiotic MIC, Erythromycin ([3]; erythromycin combined with peptide at 4 μg/ml): 8 µg/mL
- Antibiotic MIC, Erythromycin ([3]; erythromycin combined with peptide at 6 μg/ml): 2 µg/mL
- Antibiotic MIC, Erythromycin ([3]; erythromycin combined with peptide at 8 μg/ml): 1 µg/mL
- Antibiotic MIC, Erythromycin ([3]; erythromycin combined with peptide at 16 μg/ml): 0.25 µg/mL
- Antibiotic MIC, Erythromycin ([3]; erythromycin combined with peptide at 32 μg/ml): 0 µg/mL
- Antibiotic MIC, Erythromycin ([3]; erythromycin combined with peptide at 64 μg/ml): 0 µg/mL
- Antibiotic MIC, Linezolid ([3]; linezolid combined with peptide at 1 μg/ml): >128 µg/mL
- Antibiotic MIC, Linezolid ([3]; linezolid combined with peptide at 2 μg/ml): 128 µg/mL
- Antibiotic MIC, Linezolid ([3]; linezolid combined with peptide at 4 μg/ml): 64 µg/mL
- Antibiotic MIC, Linezolid ([3]; linezolid combined with peptide at 6 μg/ml): 32 µg/mL
- Antibiotic MIC, Linezolid ([3]; linezolid combined with peptide at 8 μg/ml): 16 µg/mL
- Antibiotic MIC, Linezolid ([3]; linezolid combined with peptide at 16 μg/ml): 8 µg/mL
- Antibiotic MIC, Linezolid ([3]; linezolid combined with peptide at 32 μg/ml): 0 µg/mL
- Antibiotic MIC, Linezolid ([3]; linezolid combined with peptide at 64 μg/ml): 0 µg/mL
- Antibiotic MIC, Vancomycin ([3]; vancomycin combined with peptide at 1 μg/ml): >128 µg/mL
- Antibiotic MIC, Vancomycin ([3]; vancomycin combined with peptide at 2 μg/ml): >128 µg/mL
- Antibiotic MIC, Vancomycin ([3]; vancomycin combined with peptide at 4 μg/ml): >128 µg/mL
- Antibiotic MIC, Vancomycin ([3]; vancomycin combined with peptide at 6 μg/ml): 64 µg/mL
- Antibiotic MIC, Vancomycin ([3]; vancomycin combined with peptide at 8 μg/ml): 32 µg/mL
- Antibiotic MIC, Vancomycin ([3]; vancomycin combined with peptide at 16 μg/ml): 8 µg/mL
- Antibiotic MIC, Vancomycin ([3]; vancomycin combined with peptide at 32 μg/ml): 0 µg/mL
- Antibiotic MIC, Vancomycin ([3]; vancomycin combined with peptide at 64 μg/ml): 0 µg/mL
- Minimal inhibitory concentration MIC [4]: >128 µg/mL
- Peptide MIC during treatment with erythromycin [5, 20]: 8 µg/mL
- Peptide MIC during treatment with erythromycin [5, 21]: 4 µg/mL
- Peptide MIC during treatment with erythromycin [5, 22]: 2 µg/mL
- Peptide MIC during treatment with erythromycin [5, 23]: 0 µg/mL
- Peptide MIC during treatment with linezolid ([5]; linezolid 32 μg/ml (Conc./MIC 1/8)): 4 µg/mL
- Peptide MIC during treatment with linezolid ([5]; linezolid 64 μg/ml (Conc./MIC 1/4)): 4 µg/mL
- Peptide MIC during treatment with linezolid ([5]; linezolid […] (Conc./MIC 1)): 0 µg/mL
- Peptide MIC during treatment with linezolid ([5]; linezolid […] (Conc./MIC 1/2)): 1 µg/mL
- Peptide MIC during treatment with vancomycin [5, 18]: 0.25 µg/mL
- Peptide MIC during treatment with vancomycin [5, 19]: 0 µg/mL
- Peptide MIC during treatment with vancomycin ([5]; vancomycin […] (Conc./MIC 1/4)): 0.5 µg/mL
- Peptide MIC during treatment with vancomycin ([5]; vancomycin […] (Conc./MIC 1/8)): 4 µg/mL
- Peptide MIC during treatment with erythromycin [6, 20]: 8 µg/mL
- Peptide MIC during treatment with erythromycin [6, 21]: 8 µg/mL
- Peptide MIC during treatment with erythromycin [6, 22]: 4 µg/mL
- Peptide MIC during treatment with erythromycin [6, 23]: 0 µg/mL
- Peptide MIC during treatment with linezolid [6, 16]: 4 µg/mL
- Peptide MIC during treatment with linezolid [6, 17]: 0 µg/mL
- Peptide MIC during treatment with linezolid ([6]; linezolid […] (Conc./MIC 1/2)): 1 µg/mL
- Peptide MIC during treatment with linezolid ([6]; linezolid […] (Conc./MIC 1/4)): 4 µg/mL
- Peptide MIC during treatment with vancomycin [6, 18]: 2 µg/mL
- Peptide MIC during treatment with vancomycin [6, 19]: 1 µg/mL
- Peptide MIC during treatment with vancomycin ([6]; vancomycin […] (Conc./MIC 1/4)): 4 µg/mL
- Peptide MIC during treatment with vancomycin ([6]; vancomycin […] (Conc./MIC 1/8)): 4 µg/mL
- Minimal inhibitory concentration MIC [7]: >128 µg/mL
- Minimal inhibitory concentration MIC [8]: >128 µg/mL
- Minimal inhibitory concentration MIC [9]: 32 µg/mL (≈ 13.3 µM)
- Minimal inhibitory concentration MIC [10]: 32 µg/mL (≈ 13.3 µM)
- Peptide MIC, peptide alone [10]: 32 µg/mL
- Antibacterial activity relative to PapMA-1 ([10]; A. baumannii and S. typhimurium): at least twice as high
- Minimal inhibitory concentration MIC ([11]; agent alone): 32 µg/mL (≈ 13.3 µM)
- Peptide MIC, peptide alone ([11]; no antibiotic): 32 µg/mL
- Minimal inhibitory concentration MIC [12]: 32 µg/mL (≈ 13.3 µM)
- Antibiotic MIC, Erythromycin [13, 24]: 32 µg/mL
- Antibiotic MIC, Linezolid [13, 24]: >128 µg/mL
- Antibiotic MIC, Vancomycin [13, 24]: >128 µg/mL
- Antibiotic MIC, Erythromycin [13, 25]: 32 µg/mL
- Antibiotic MIC, Linezolid [13, 25]: >128 µg/mL
- Antibiotic MIC, Vancomycin [13, 25]: >128 µg/mL
- Antibiotic MIC, Erythromycin [13, 26]: 8 µg/mL
- Antibiotic MIC, Linezolid [13, 26]: 32 µg/mL
- Antibiotic MIC, Vancomycin [13, 26]: 64 µg/mL
- Antibiotic MIC, Erythromycin [13, 27]: 2 µg/mL
- Antibiotic MIC, Linezolid [13, 27]: 16 µg/mL
- Antibiotic MIC, Vancomycin [13, 27]: 32 µg/mL
- Antibiotic MIC, Erythromycin [13, 28]: 1 µg/mL
- Antibiotic MIC, Linezolid [13, 28]: 16 µg/mL
- Antibiotic MIC, Vancomycin [13, 28]: 16 µg/mL
- Antibiotic MIC, Erythromycin [13, 29]: 0.25 µg/mL
- Antibiotic MIC, Linezolid [13, 29]: 2 µg/mL
- Antibiotic MIC, Vancomycin [13, 29]: 8 µg/mL
- Antibiotic MIC, Erythromycin [13, 30]: 0 µg/mL
- Antibiotic MIC, Linezolid [13, 30]: 0 µg/mL
- Antibiotic MIC, Vancomycin [13, 30]: 0 µg/mL
- Antibiotic MIC, Erythromycin [13, 31]: 0 µg/mL
- Antibiotic MIC, Linezolid [13, 31]: 0 µg/mL
- Antibiotic MIC, Vancomycin [13, 31]: 0 µg/mL
- Minimal inhibitory concentration MIC [14]: 32 µg/mL (≈ 13.3 µM)
- Minimal inhibitory concentration MIC ([15]; agent alone): 32 µg/mL (≈ 13.3 µM)
- Peptide MIC, peptide alone ([15]; peptide alone, no antibiotic): 32 µg/mL
